# Legend:
# [1] = Inhibition of rice alpha-glucosidase using p-nitrophenyl-glycoside as substrate by spectrophotometric method; design: species or system Oryza sativa
# [2] = molecular target: T1, Uncharacterized protein (Sus scrofa) (UniProt I3LIR5); assay: Inhibition of porcine kidney trehalase assessed as D-glucose level at 1000 uM using maltose as substrate measured after 10 to 30 mins
# T1 sequence (whole entry): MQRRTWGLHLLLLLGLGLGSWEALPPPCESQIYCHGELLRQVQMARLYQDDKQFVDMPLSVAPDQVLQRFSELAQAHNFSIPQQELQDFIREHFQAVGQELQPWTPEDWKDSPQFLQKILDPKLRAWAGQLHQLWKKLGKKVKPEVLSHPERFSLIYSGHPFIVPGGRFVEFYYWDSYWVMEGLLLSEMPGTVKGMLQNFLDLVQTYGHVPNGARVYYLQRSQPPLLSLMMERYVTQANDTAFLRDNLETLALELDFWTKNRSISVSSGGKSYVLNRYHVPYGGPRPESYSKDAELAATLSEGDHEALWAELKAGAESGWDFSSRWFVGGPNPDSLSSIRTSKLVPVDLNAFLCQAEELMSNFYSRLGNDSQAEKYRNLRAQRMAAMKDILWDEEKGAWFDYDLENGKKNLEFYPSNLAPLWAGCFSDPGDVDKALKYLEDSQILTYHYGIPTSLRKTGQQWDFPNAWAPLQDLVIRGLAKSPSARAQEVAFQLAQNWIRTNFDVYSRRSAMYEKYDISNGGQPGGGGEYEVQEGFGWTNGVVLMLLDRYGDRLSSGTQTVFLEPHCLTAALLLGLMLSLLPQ
# Aspergillus niger = assay: Inhibition of Aspergillus niger amyloglucosidase assessed as D-glucose level at 1000 uM using maltose as substrate measured after 10 to 30 mins
# Escherichia coli [3] = assay: Inhibition of Escherichia coli beta-glucuronidase at 1000 uM using p-nitrophenyl-glycoside as substrate by spectrophotometric method
# Beta-galactosidase = molecular target: T2, Beta-galactosidase (Bos taurus, UniProt Q58D55); assay: Inhibition of bovine liver beta-galactosidase using p-nitrophenyl-glycoside as substrate by spectrophotometric method
# T2 sequence (Q58D55 whole entry): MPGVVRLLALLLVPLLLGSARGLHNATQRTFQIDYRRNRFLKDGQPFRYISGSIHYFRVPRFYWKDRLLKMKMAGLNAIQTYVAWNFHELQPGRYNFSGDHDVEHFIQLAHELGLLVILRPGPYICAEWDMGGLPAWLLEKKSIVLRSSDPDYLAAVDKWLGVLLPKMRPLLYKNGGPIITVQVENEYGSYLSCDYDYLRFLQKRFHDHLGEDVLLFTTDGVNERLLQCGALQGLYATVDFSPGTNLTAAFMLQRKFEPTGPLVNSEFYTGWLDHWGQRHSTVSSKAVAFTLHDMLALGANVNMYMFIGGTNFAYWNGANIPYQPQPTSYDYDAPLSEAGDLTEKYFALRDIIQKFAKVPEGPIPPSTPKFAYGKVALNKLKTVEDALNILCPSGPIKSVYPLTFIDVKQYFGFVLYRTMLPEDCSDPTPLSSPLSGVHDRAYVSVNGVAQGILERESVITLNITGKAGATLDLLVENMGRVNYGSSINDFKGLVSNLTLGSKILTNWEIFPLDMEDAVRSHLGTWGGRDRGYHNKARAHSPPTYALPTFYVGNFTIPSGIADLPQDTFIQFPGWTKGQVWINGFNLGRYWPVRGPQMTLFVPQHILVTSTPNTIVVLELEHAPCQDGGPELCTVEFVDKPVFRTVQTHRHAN
# Homo sapiens = species: Homo sapiens; assay: Inhibition of human lysosomal beta-glucosidase at 1000 uM using 4-methylumbelliferyl-beta-D-glucopyranoside as substrate preincubated for 45 mins followed by substrate addition measured after 30 mins by fluorescence spectrophotometric method
# [4] = Inhibition of maltase in rat small intestinal brush border membranes assessed as D-glucose level using maltose as substrate measured after 10 to 30 mins
# [5] = molecular target: T3, Tissue alpha-L-fucosidase (Bos taurus) (UniProt Q2KIM0); assay: Inhibition of bovine kidney alpha-L-fucosidase at 1000 uM using p-nitrophenyl-glycoside as substrate by spectrophotometric method
# T3 sequence (whole entry): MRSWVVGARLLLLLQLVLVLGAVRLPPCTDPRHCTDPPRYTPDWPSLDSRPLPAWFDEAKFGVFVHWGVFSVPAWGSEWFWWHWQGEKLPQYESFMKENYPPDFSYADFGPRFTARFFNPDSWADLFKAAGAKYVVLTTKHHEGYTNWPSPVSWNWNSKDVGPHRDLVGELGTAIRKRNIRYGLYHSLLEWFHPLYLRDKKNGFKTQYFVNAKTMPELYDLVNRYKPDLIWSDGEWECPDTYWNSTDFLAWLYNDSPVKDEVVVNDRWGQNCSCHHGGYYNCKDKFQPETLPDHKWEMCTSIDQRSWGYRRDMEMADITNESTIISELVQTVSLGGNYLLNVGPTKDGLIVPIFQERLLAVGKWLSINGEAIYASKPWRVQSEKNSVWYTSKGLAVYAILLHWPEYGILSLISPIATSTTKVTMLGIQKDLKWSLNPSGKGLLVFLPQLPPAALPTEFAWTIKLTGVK
# Prunus dulcis = assay: Inhibition of almond beta-glucosidase at 1000 uM using p-nitrophenyl-glycoside as substrate by spectrophotometric method
# [6] = Inhibition of bovine liver beta-glucosidase using p-nitrophenyl-glycoside as substrate by spectrophotometric method; design: species or system Bos taurus
# Penicillium decumbens = assay: Inhibition of Penicillium decumbens alpha-L-rhamnosidase at 1000 uM using p-nitrophenyl-glycoside as substrate by spectrophotometric method
# [7] = Inhibition of Penicillium decumbens alpha-L-rhamnosidase
# [8] = Inhibition of Penicillium decumbens alpha-L-rhamnosidase using p-nitrophenyl-glycoside as substrate by spectrophotometric method
# [9] = Competitive inhibition of Penicillium decumbens alpha-L-rhamnosidase using p-nitrophenyl-glycoside as substrate by Lineweaver-Burk plot analysis
# Saccharomyces cerevisiae = assay: Inhibition of yeast alpha-glucosidase at 1000 uM using p-nitrophenyl-glycoside as substrate by spectrophotometric method
# Escherichia coli [10] = assay: Inhibition of Escherichia coli beta-galactosidase at 1000 uM using p-nitrophenyl-glycoside as substrate by spectrophotometric method
# Coffea = assay: Inhibition of coffee bean alpha-galactosidase at 1000 uM using p-nitrophenyl-glycoside as substrate by spectrophotometric method
# Helix pomatia = assay: Inhibition of Helix pomatia beta-mannosidase at 1000 uM using p-nitrophenyl-glycoside as substrate by spectrophotometric method
# Bos taurus = species: Bos taurus; assay: Inhibition of bovine liver beta-glucosidase at 1000 uM using p-nitrophenyl-glycoside as substrate by spectrophotometric method
# [11] = molecular target: T4, Alpha-mannosidase (Canavalia ensiformis) (UniProt C0HJB3); assay: Inhibition of Jack bean alpha-mannosidase at 1000 uM preincubated for 45 mins followed by addition of p-nitrophenyl-glycoside as substrate measured after 30 mins by fluorescence spectrophometry
# T4 sequence (whole entry): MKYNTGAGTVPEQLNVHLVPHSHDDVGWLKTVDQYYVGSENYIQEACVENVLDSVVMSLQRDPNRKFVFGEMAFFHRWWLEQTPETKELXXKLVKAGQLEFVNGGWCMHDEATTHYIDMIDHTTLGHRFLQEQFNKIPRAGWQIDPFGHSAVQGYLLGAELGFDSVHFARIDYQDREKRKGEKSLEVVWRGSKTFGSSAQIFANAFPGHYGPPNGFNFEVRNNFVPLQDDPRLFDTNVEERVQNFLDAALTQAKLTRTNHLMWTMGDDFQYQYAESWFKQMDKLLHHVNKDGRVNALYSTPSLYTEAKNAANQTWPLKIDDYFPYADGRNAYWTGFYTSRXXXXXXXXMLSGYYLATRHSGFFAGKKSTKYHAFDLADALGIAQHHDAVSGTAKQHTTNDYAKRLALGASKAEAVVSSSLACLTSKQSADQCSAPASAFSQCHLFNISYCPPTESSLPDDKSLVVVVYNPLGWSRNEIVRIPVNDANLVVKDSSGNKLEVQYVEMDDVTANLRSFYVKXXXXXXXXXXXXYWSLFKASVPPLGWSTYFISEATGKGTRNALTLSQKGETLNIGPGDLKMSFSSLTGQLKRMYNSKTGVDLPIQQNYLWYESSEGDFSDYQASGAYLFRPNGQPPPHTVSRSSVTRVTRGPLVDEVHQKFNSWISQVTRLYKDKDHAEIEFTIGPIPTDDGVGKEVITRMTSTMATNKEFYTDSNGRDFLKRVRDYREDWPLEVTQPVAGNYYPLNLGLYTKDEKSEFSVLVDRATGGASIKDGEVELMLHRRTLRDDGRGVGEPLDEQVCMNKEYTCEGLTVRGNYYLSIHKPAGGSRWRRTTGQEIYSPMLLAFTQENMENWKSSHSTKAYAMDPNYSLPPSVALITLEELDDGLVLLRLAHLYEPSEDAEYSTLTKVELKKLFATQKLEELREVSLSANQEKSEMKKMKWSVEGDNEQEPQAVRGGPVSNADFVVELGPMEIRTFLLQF
# [12] = Inhibition of human lysosomal beta-glucosidase using 4-methylumbelliferyl-beta-D-glucopyranoside as substrate preincubated for 45 mins followed by substrate addition measured after 30 mins by fluorescence spectrophotometric method
# [13] = molecular target: T5, Beta-galactosidase (Bos taurus) (UniProt Q58D55); assay: Inhibition of bovine liver beta-galactosidase at 1000 uM using p-nitrophenyl-glycoside as substrate by spectrophotometric method
# T5 sequence (whole entry): T2 sequence (Q58D55 whole entry)
# Rattus norvegicus = species: Rattus norvegicus; assay: Inhibition of rat intestinal maltase assessed as D-glucose level at 1000 uM using maltose as substrate measured after 10 to 30 mins
# Oryza sativa = assay: Inhibition of rice alpha-glucosidase at 1000 uM using p-nitrophenyl-glycoside as substrate by spectrophotometric method
structure (smiles),measurement,setting,value
CCCCNC(=S)N1[C@@H](CO)[C@H](O)[C@@H](O)[C@@H]1CO,IC50,[1],741 µM
same,inhibition,[2],< 50%
same,inhibition,Aspergillus niger,< 50%
same,inhibition,Escherichia coli [3],< 50%
same,IC50,Beta-galactosidase,473 µM
same,inhibition,Homo sapiens,< 50%
same,IC50,[4],1000 µM
same,inhibition,[5],< 50%
same,inhibition,Prunus dulcis,< 50%
same,IC50,[6],939 µM
same,inhibition,Penicillium decumbens,< 50%
C[C@H]1NC[C@H](O)[C@H](O)[C@H]1O,IC50,[7],5 µM
same,IC50,[8],10 µM
same,Ki,[9],4.2 µM
OC[C@@H]1N[C@@H](CO)[C@H](O)[C@H]1O,inhibition,Aspergillus niger,< 50%
same,inhibition,Saccharomyces cerevisiae,< 50%
same,inhibition,Homo sapiens,< 50%
same,inhibition,Escherichia coli [10],< 50%
same,inhibition,Coffea,< 50%
same,inhibition,Helix pomatia,< 50%
same,inhibition,Prunus dulcis,< 50%
same,inhibition,Penicillium decumbens,< 50%
same,inhibition,Bos taurus,< 50%
same,inhibition,[11],< 50%
CCCCCCCC/N=C1/SC[C@@H]2[C@@H](O)[C@H](O)[C@@H](CO)N12,IC50,[12],2400 nM
same,inhibition,[2],< 50%
same,inhibition,Aspergillus niger,< 50%
same,inhibition,Saccharomyces cerevisiae,< 50%
same,inhibition,Escherichia coli [3],< 50%
same,inhibition,[13],< 50%
same,inhibition,Rattus norvegicus,< 50%
same,inhibition,Escherichia coli [10],< 50%
same,inhibition,Coffea,< 50%
same,inhibition,Helix pomatia,< 50%
same,inhibition,[5],< 50%
same,inhibition,Prunus dulcis,< 50%
same,IC50,[6],63 µM
same,inhibition,Penicillium decumbens,< 50%
same,inhibition,Oryza sativa,< 50%
same,inhibition,[11],< 50%
CCCCCCCC/N=C1/SC[C@H]2[C@H](O)[C@@H](O)[C@H](CO)N12,inhibition,[2],< 50%
same,inhibition,Aspergillus niger,< 50%
same,inhibition,Saccharomyces cerevisiae,< 50%
same,IC50,[8],1.6 µM
same,inhibition,Escherichia coli [3],< 50%
same,inhibition,Homo sapiens,< 50%
same,inhibition,[13],< 50%
same,inhibition,Rattus norvegicus,< 50%
same,inhibition,Escherichia coli [10],< 50%
same,inhibition,Coffea,< 50%
same,inhibition,Helix pomatia,< 50%
same,inhibition,[5],< 50%
same,inhibition,Prunus dulcis,< 50%
same,inhibition,Oryza sativa,< 50%
same,inhibition,Bos taurus,< 50%
same,inhibition,[11],< 50%
CCCCCC/N=C1/SC[C@H]2[C@H](O)[C@@H](O)[C@H](CO)N12,IC50,[1],418 µM
same,inhibition,[2],< 50%
same,inhibition,Aspergillus niger,< 50%
same,IC50,[8],5.3 µM
same,inhibition,Escherichia coli [3],< 50%
same,IC50,Beta-galactosidase,599 µM
same,inhibition,Homo sapiens,< 50%
same,IC50,[4],799 µM
same,inhibition,[5],< 50%
same,inhibition,Prunus dulcis,< 50%
same,inhibition,Bos taurus,< 50%

# From ChEMBL document CHEMBL3868599, “Strategy for designing selective α-l-rhamnosidase inhibitors: Synthesis and biological evaluation of l-DMDP cyclic isothioureas” (Bioorg Med Chem, 2017)
